Usually Cmax stands for the maximum level reached in the sampled fluid or tissue. As usually defined, the Tmax is the time at which the peak concentration occurs. The half-life is the time in which the quantity being followed falls by half. Read a low half-life as fast loss. As a reminder, the solubility is the concentration that dissolves in the medium under given conditions. Read a low solubility as a poorly soluble substance. By AUC(0-inf) is commonly meant total exposure, with the tail of the curve extrapolated. The low end stands for less exposure, the high end for more exposure.

Consider four compounds from patent US20230365564A1, “COCRYSTALS OF AN ADENOSINE A2B RECEPTOR ANTAGONIST” (Teon Therapeutics, Inc., priority 2020, published 2023).

SMILES strings stand for the structures. Bounds are passed on as bounds.

The nature of series [1]: Pharmacokinetics following peroral administration to dogs. The following applies: dog, in vivo. On the set-up: species or system beagle dogs. How it is done: The pharmacokinetics of the fumaric acid cocrystal of Example 4 was evaluated following peroral administration to dogs.
Male beagle dogs were separated into two groups of three dogs.
[…] The dosing formulation consisted of 0.40 mg/mL of the fumaric acid cocrystal in 4% Soluplus® in simulated gastric fluid (SGF) at pH 2.0, as a homogeneous opaque suspension of fine particles.
[…] The dosing formulation consisted of 2 mg/mL of the fumaric acid cocrystal in 4% Soluplus® in simulated gastric fluid (SGF) at pH 2.0, as a homogeneous opaque suspension of fine particles.

A short description of series [2]: Bulk stability (HPLC and XRPD). The class given is physicochemical. The protocol:
The bulk stability of the free form and the cocrystals was determined by exposing the compounds to conditions of temperature, humidity and/or radiation flux and evaluating the compound by HPLC and XRPD.

Series [3] can be described thus: Kinetic solubility (solubility-time profile) in biologically relevant fluids. Format: physicochemical. The following applies: for solubility: 0.5 h, 2 h and 24 h; for solubility-time profile: 0.5 h to 24 h; for solubility compared with the free form: several biologically relevant media. The protocol: The solubility-time profile of free form compound (1) and the three cocrystals was evaluated in different aqueous media.
(§1) The kinetic solubility experiments were conducted for the free form and the three cocrystals in the following media: (1) pH 1.0 (0.1N) HCl solution, (2) pH 4.5 (50 mM) acetate buffer, (3) pH 6.8 (50 mM) phosphate buffer, (4) FeSSIF-v1 (Fed state stimulated intestinal fluid version 1) (pH 5.0), (5) FaSSIF-v1 (Fasted state stimulated intestinal fluid version 1) (pH 6.5), (6) SGF (Simulated gastric fluid) (pH 2.0), and (7) FaSSIF-v1/4% Soluplus®, and (8) SGF/4% Soluplus®.
(§2) After combining with the respective media at 37° C., the concentration of the free form or cocrystal and the XRPD was measured at 0.5 hours, 2 hours, and 24 hours.

Series [4] can be described thus: Aqueous solubility of compound (1). The class given is physicochemical. The following applies: aqueous medium; substantially independent of pH over a relevant physiological range.
Series [5] can be described thus: XRPD form change after standing in aqueous media at 37° C. Format: physicochemical. The conditions noted are these: for form change (XRPD) after equilibrating in the aqueous media: 24 hours at 37° C. How it is done:
X-ray powder diffraction (XRPD) was performed using a Bruker D8 Advance® instrument with a Lynxeye® XE T(1D mode) detector at an open angle of 2.94° in continuous scan mode using a Cu/K-α (λ−1.5418 Å) source. The diffraction patterns were obtain over a scan range from 3° to 40° with 0.02° steps, a step duration of 0.12, and a sample rotation speed of 15 rpm.
as §1, §2
The XRPD patterns shown in FIGS. 19-23 are associated with the aqueous media described in Table 1 and for the free form (Compound (1), FF), the benzenesulfonic acid cocrystal (BSA CC), the para-toluenesulfonic acid cocrystal (pTSA CC), and the fumaric acid cocrystal (FA CC).

Series [6] is described as follows: Dynamic vapor sorption (DVS) hygroscopicity. The class given is physicochemical. The conditions noted are these: for water absorption (DVS): at 95% RH; for water absorption (DVS) / form change after DVS: 25° C.; for form change after DVS: humidity cycle 40-0-95-0-40% RH. The protocol:
Dynamic vapor sorption (DVS) was performed using an Advantage instrument at a total gas flow rate of 200 sccm, an oven temperature of 25° C. with water as the solvent. The humidity cycle was 40-0-95-0-40% RH at step intervals of 10% RH with an equilibration of 0.002 dm/dt (%/min), a maximum, dm/dt stability duration of 60 min, and a maximum dm/dt stage time of 360 min.

Setting [7] is: oral, 5 mg/kg, 0.5% methylcellulose.
Where [8] appears, read: 25° C./60% RH in an open vial, 2 weeks.
Setting [9] is: 40° C./75% RH in an open vial, 2 weeks.
[10] abbreviates: 60° C. in a closed vial, 2 weeks.
Where [11] appears, read: pH 1.0 HCl, pH 4.5 acetate, pH 6.8 phosphate, FeSSIF-v1, FaSSIF-v1.
Where [12] appears, read: SGF, FaSSIF-v1/4% Soluplus and SGF/4% Soluplus.
Setting [13] is: above 80% RH at 25° C. (then becomes).
The mark [14] stands for this setting: po, 2 mg/kg peroral, fed male beagle dogs, 4% Soluplus in SGF pH 2.0.
Where [15] appears, read: po, 10 mg/kg peroral, fed male beagle dogs, 4% Soluplus in SGF pH 2.0.

`CCCn1c(=O)c2[nH]c(-c3cnn(Cc4cccc(C(F)(F)F)c4)c3)nc2n(CC)c1=O` [Compound (1), 3-Ethyl-1-propyl-8-(1-(3-(trifluoromethyl)benzyl)-1H-pyrazol-4-yl)-3,7-dihydro-1H-purine-2,6-dione] showed a maximum concentration (Cmax) in series [1] (setting [7]) of 81 ng/mL. Besides, the Tmax in series [1] (setting [7]) was 2 h. The compound also showed a half-life in series [1] (setting [7]) of 63 h. For the same compound, in series [1] (oral, 5 mg/kg, 0.5% methylcellulose, read-out: AUC0-24), the AUC(0-t) was found to be 796 ng·h/mL. The bulk stability entry in series [2] (1.2 million lux-hrs), in series [2] (setting [8]), in series [2] (setting [9]) and in series [2] (setting [10]) was “did not exhibit any significant degradation” in each case. The solubility result in series [3] (FaSSIF-v1, 37° C.) is “below the level of quantification (LOQ)”; in series [3] (FeSSIF-v1, 37° C.), “below the level of quantification (LOQ)”; in series [3] (pH 1.0 HCl solution, 37° C.) it was “below the level of quantification (LOQ)”; in series [3] (pH 4.5 acetate buffer, 37° C.), “below the level of quantification (LOQ)”; in series [3] (pH 6.8 phosphate buffer, 37° C.) it was “below the level of quantification (LOQ)”; in series [4] it was below 1 µg/mL. The solubility-time profile entry in series [3] (FaSSIF-v1/4% Soluplus, 37° C.) is listed as “increased over time”; in series [3] (SGF, 37° C.), “maintained in the same magnitude”; in series [3] (SGF/4% Soluplus, 37° C.), “increased over time”. Moreover, the “form change (XRPD) after equilibrating in the aqueous media” value (“form change (XRPD) after equilibrating” for short) in series [5] (setting [11]) is “did not show a change in form”. In series [5] (setting [12]), the “form change after solubility study” value is recorded as “no form change”.
As to `CCCn1c(=O)c2[nH]c(-c3cnn(Cc4cccc(C(F)(F)F)c4)c3)nc2n(CC)c1=O.O=S(=O)(O)c1ccccc1` [benzenesulfonic acid cocrystal, 3-ethyl-1-propyl-8-(1-(3-(trifluoromethyl)benzyl)-1H-pyrazol-4-yl)-3,7-dihydro-1H-purine-2,6-dione and benzenesulfonic acid], the bulk stability entry in series [2] (1.2 million lux-hrs) is “stable”; in series [2] (setting [8]) it was “stable”; in series [2] (setting [9]) it was “began to show some disassociation”; in series [2] (setting [10]), “stable”. Further, the solubility-time profile entry in series [3] (FaSSIF-v1/4% Soluplus, 37° C.) is “increased over time”; in series [3] (SGF/4% Soluplus, 37° C.), “increased over time”. Also, in series [3], the “solubility compared with the free form” value is “higher solubility than the free form”. Also, the figures for the water adsorption in series [6] (25° C./80% RH) and in series [6] (25° C./95% RH) were 2.2 wt % and 65 wt %, respectively. Moreover, the “hygroscopicity (DVS)” value is “highly hygroscopic” in series [6] (setting [13]) and “only slightly hygroscopic” in series [6] (below 80% RH at 25° C.). In addition, in series [6], the “water absorption (DVS)” value came to 65%. Besides, the “form change after DVS” value in series [6] is reported as “No form change”. In series [5] (setting [11]), the “form change (XRPD) after equilibrating” value is listed as “completely dissociated to the free form”. In addition, the “form change after solubility study” value in series [5] (setting [12]) is reported as “dissociated to free form”.
For the compound `CCCn1c(=O)c2[nH]c(-c3cnn(Cc4cccc(C(F)(F)F)c4)c3)nc2n(CC)c1=O.O=C(O)/C=C/C(=O)O` [fumaric acid cocrystal, 3-ethyl-1-propyl-8-(1-(3-(trifluoromethyl)benzyl)-1H-pyrazol-4-yl)-3,7-dihydro-1H-purine-2,6-dione and fumaric acid], the AUC(0-inf) in series [1] (setting [14]) turned out to be 2220 ng·h/mL; in series [1] (setting [15]) it was 21100 ng·h/mL. The highest concentration (Cmax) in series [1] (setting [14]) was found to be 148 ng/mL; in series [1] (setting [15]) it was 976 ng/mL. For the same compound, the Tmax in series [1] (setting [14]) is 4 h; in series [1] (setting [15]), 10.7 h. Besides, the half-life in series [1] (setting [14]) is 14.8 h; in series [1] (setting [15]), 6.5 h. In addition, the bulk stability result in series [2] (1.2 million lux-hrs), in series [2] (setting [8]), in series [2] (setting [9]) and in series [2] (setting [10]) was “did not exhibit any significant degradation” in each case. For the same compound, in series [3], the “solubility compared with the free form” value is “higher solubility than the free form”. Further, the values for the water adsorption in series [6] (25° C./80% RH) and in series [6] (25° C./95% RH) were 1.7 wt % and 4.0 wt %, respectively. In addition, the “hygroscopicity (DVS)” value in series [6] (above 90% RH at 25° C. (then becomes)) is reported as “hygroscopic”; in series [6] (below 90% RH at 25° C.), “slightly hygroscopic”. Besides, the “water absorption (DVS)” value in series [6] amounted to 4%. The “form change after DVS” value in series [6] is “No form change”. Moreover, the “form change (XRPD) after equilibrating” value in series [5] (FaSSIF-v1) is recorded as “only partially dissociated to the free form”; in series [5] (FeSSIF-v1) it was “only partially dissociated to the free form”; in series [5] (pH 1.0 HCl solution), “did not show any form change”; in series [5] (pH 4.5 acetate buffer), “only partially dissociated to the free form”. Besides, the “form change after solubility study” value in series [5] (FaSSIF-v1/4% Soluplus) is “converted to a mixture of the cocrystal and amorphous state (free form)”; in series [5] (SGF) it was “dissociated to free form”; in series [5] (SGF/4% Soluplus), “converted to a mixture of the cocrystal and amorphous state (free form)”.
Turning to `CCCn1c(=O)c2[nH]c(-c3cnn(Cc4cccc(C(F)(F)F)c4)c3)nc2n(CC)c1=O.Cc1ccc(S(=O)(=O)O)cc1` [para-toluenesulfonic acid cocrystal, 3-ethyl-1-propyl-8-(1-(3-(trifluoromethyl)benzyl)-1H-pyrazol-4-yl)-3,7-dihydro-1H-purine-2,6-dione and para-toluenesulfonic acid], the bulk stability result in series [2] (1.2 million lux-hrs), in series [2] (setting [8]), in series [2] (setting [9]) and in series [2] (setting [10]) was “did not exhibit any significant degradation” in each case. Also, the solubility-time profile entry in series [3] (FaSSIF-v1/4% Soluplus, 37° C.) was “first increased and then decreased”; in series [3] (SGF/4% Soluplus, 37° C.) it was “first increased and then decreased”. In series [3], the “solubility compared with the free form” value is reported as “higher solubility than the free form”. Also, the water adsorption in series [6] (25° C./80% RH) and in series [6] (25° C./95% RH) was 1.1 wt % throughout. The “hygroscopicity (DVS)” value in series [6] (setting [13]) was “slightly hygroscopic”; in series [6] (below 80% RH at 25° C.) it was “only slightly hygroscopic”. The “water absorption (DVS)” value in series [6] is reported as 11%. For the same compound, the “form change after DVS” value in series [6] is “No form change”. The “form change (XRPD) after equilibrating” value in series [5] (setting [11]) is on record as “completely dissociated to the free form”. Further, the “form change after solubility study” value in series [5] (setting [12]) is “dissociated to free form”.
